# Residues, ends and D or L forms follow the SMILES beside them. *: point of attachment. Cbz = O=C(OCc1ccccc1)*; CH2F = FC*
# What was measured:
# KP4 = test: CCK-8 cytotoxicity assay, KP4; format: cell-based; details: KP4, 72 h, average of 3 parallel tests
# Description: (§1) Cell viability was evaluated using the Cell Counting Kit‐8 (Beyotime, Shanghai, China) assay. Cells were seeded in 96‐well plates at a density of 2×10^3 cells to allow for attachment. After treatment with ZQJ29 (0.001, 0.01, 0.1, 10, and 25 µM) for 24, 48, and 72 h, 10 µL of CCK‐8 solution was added to each well and incubated for 1 h. The optical density values were then measured at 450 nm using a multifunctional enzyme‐linked immunosorbent assay reader (Tecan, Spark, Switzerland).
# HPDE6-C7 = test: CCK-8 cytotoxicity assay, HPDE6-C7 (normal cell line); format: cell-based
# Description: as §1
# MCF = test: CCK-8 cytotoxicity assay, MCF; format: cell-based; details: 72 h
# Description: as §1
# H1975 = test: CCK-8 cytotoxicity assay, H1975; format: cell-based
# Description: as §1
# THLE-2 = test: CCK-8 cytotoxicity assay, THLE-2 (normal cell line); format: cell-based; details: 72 h
# Description: as §1
# HEK-293T = test: CCK-8 cytotoxicity assay, HEK-293T (normal cell line); format: cell-based; details: 72 h
# Description: as §1
# LX2 = test: CCK-8 cytotoxicity assay, LX2 (normal cell line); format: cell-based
# Description: as §1
# HCT116 = test: CCK-8 cytotoxicity assay, HCT116; format: cell-based; details: HCT116, 72 h
# Description: as §1
# A549 = test: CCK-8 cytotoxicity assay, A549; format: cell-based; details: A549, 72 h
# Description: as §1
# PANC-1 = test: CCK-8 cytotoxicity assay, PANC-1; format: cell-based; details: PANC-1, 72 h, average of 3 parallel tests
# Description: as §1
# HeLa = test: CCK-8 cytotoxicity assay, HeLa; format: cell-based; details: 72 h
# Description: as §1
# JHH7 = test: CCK-8 cytotoxicity assay, JHH7; format: cell-based; details: JHH7, 72 h
# Description: as §1
# PANC-1 and KP4 cells = test: Cell death manner assay (co-treatment with death pathway inhibitors, CCK-8); format: cell-based; details: 10 µM Z-VAD-FMK, 5 mM 3-MA, 10 µM Nec-1, 10 µM Fer-1 with ZQJ29, 24 h
# Description: To investigate the mechanism of ZQJ29 in pancreatic cancer proliferation inhibition, the manners of cell death were analyzed. The cell apoptosis inhibitor Z‐VAD‐FMK, cell autophagy inhibitor 3‐methyladenine, cell necrosis inhibitor necrostatin‐1, cell ferroptosis inhibitor Ferrostatin‐1, and cell ferroptosis agonist Erastin were purchased […] (MCE, USA) and stored at −20 °C. PANC‐1 and KP4 cells were seeded with a density of 2000 cells/100 µL well^−1 into 96 well plates. After 24 h, 10 µM Z‐VAD‐FMK, 5 mM 3‐methyladenine, 10 µM necrostatin‐1, 10 µM Ferrostatin‐1, and 10 µM Erastin were added and co‐incubated with ZQJ29 (1 µM), respectively, for 24 h. Then, 10 µL CCK‐8 was added and incubated at 37 °C for an additional 1 h, the absorbance was measured at 450 nm. The percentage of viability was calculated.
# PANC-1 tumors = test: PANC-1 subcutaneous xenograft antitumor activity; format: in vivo, BALB/c nude mice; details: vs control
# Description: (§2) Five‐week‐old male BALB/c nude mice were purchased from Shanghai Jihui Laboratory Animal Breeding Co., Ltd. (Shanghai, China). After a one‐week acclimatization period, PANC‐1 cells were subcutaneously injected at a dose of 5 × 10^6 cells per mouse. Four weeks post‐injection, once tumor volumes reached 50–100 mm^3, the tumor‐bearing animals were randomly divided into four groups, each consisting of six animals. ZQJ29 was prepared in a 0.5% CMC‐Na solution, while OXA was dissolved in saline. The control group was treated with oral gavage of 0.5% CMC‐Na, while the positive control group was administered intraperitoneal injections of OXA at a dosage of 3 mg kg^−1 every three days. The test groups were treated with oral gavage of ZQJ29 at dosages of 25 and 50 mg kg day^−1. Mouse weights were monitored every other day. Tumor measurements were taken every other day using calipers, and the tumor volume was calculated using the following formula: ½ × length × width^2. Drug administered continued for three weeks. After blood collection at the end of the administration, the mice were humanely euthanized, and their vital organs were promptly harvested, preserved, and embedded in paraffin for H&E staining.
# [1] = Toxicity in tumor-bearing mice (body weight, ALT/AST, H&E); format: in vivo, BALB/c nude mice
# Description: as §2
# Following the experiments, organs from mice, including hearts, livers, spleens, lungs, and kidneys were swiftly collected and fixed in 4% paraformaldehyde overnight. The tissues were then embedded in paraffin. Afterward, 4‐µm‐thick sections were produced and stained using H&E. Images of these sections were captured with a Leica DM4000b microscope (Germany).
# Blood samples were collected and placed in a biochemical incubator for 30 min, followed by centrifugation at 6000 rpm for 10 min. The supernatant was used to measure the following indicators: ALT and AST (both from Jiancheng, Nanjing, China).
# [2] = parameters: method as in PMID 38859952; details: DHA; cited from earlier work
compound,measurement,setting,value
N.N.[Cl][Pt][Cl] [DDP],IC50,KP4,> 10 µM
same,IC50,HPDE6-C7; 72 h,> 10 µM
same,IC50,MCF,0.036 ± 0.028 µM
same,IC50,"H1975; H1975, 72 h",> 10 µM
same,IC50,THLE-2,1.46 ± 0.984 µM
same,IC50,HEK-293T,> 10 µM
same,IC50,LX2; 72 h,> 10 µM
same,IC50,HCT116,0.071 ± 0.042 µM
same,IC50,A549,> 10 µM
same,IC50,PANC-1,> 10 µM
same,IC50,HeLa,0.282 ± 0.11 µM
same,IC50,JHH7,> 10 µM
COC(=O)C[C@H](NC(=O)[C@H](C)NC(=O)[C@@H](NC(=O)OCc1ccccc1)C(C)C)C(=O)CF [Z‐VAD‐FMK] (Cbz-Val-Ala-Asp(OMe)-CH2F),reversal of ZQJ29-induced cell death by co-treatment,PANC-1 and KP4 cells,did not reverse
"CCOC(=O)c1ccc(NC2CCCCC2)c(N)c1 [Fer‐1, Ferrostatin‐1]",reversal of ZQJ29-induced cell death by co-treatment,PANC-1 and KP4 cells,reversed
"Cn1cnc(N)c2ncnc1-2 [3‐MA, 3‐methyladenine]",reversal of ZQJ29-induced cell death by co-treatment,PANC-1 and KP4 cells,did not reverse
"CN1C(=O)C(Cc2c[nH]c3ccccc23)NC1=S (stereo not drawn) [Nec‐1, necrostatin‐1]",reversal of ZQJ29-induced cell death by co-treatment,PANC-1 and KP4 cells,did not reverse
"O=C1[O][Pt]2([NH][C@@H]3CCCC[C@H]3[NH]2)[O]C1=O [OXA, oxaliplatin]",IC50,KP4,> 10 µM
same,tumor growth,"PANC-1 tumors; ZQJ29 25 and 50 mg/kg/day oral gavage, OXA 3 mg/kg i.p. every three days, three weeks",effectively inhibited
same,expression of Ki67 and PCNA in tumor tissue (IHC),PANC-1 tumors; after treatment,significantly reduced
same,IC50,HPDE6-C7; 72 h,2.7 ± 0.567 µM
same,IC50,MCF,0.196 ± 0.087 µM
same,post-experiment levels of ALT and AST,"[1]; ZQJ29 50 mg/kg, OXA 3 mg/kg i.p.",significantly elevated
same,body weight during the whole treatment period,"[1]; tumor-bearing nude mice, three weeks",decreased significantly
same,IC50,"H1975; H1975, 72 h",3.49 ± 0.552 µM
same,IC50,THLE-2,0.777 ± 0.188 µM
same,IC50,HEK-293T,> 10 µM
same,IC50,LX2; 72 h,2.46 ± 0.56 µM
same,IC50,HCT116,0.103 ± 0.026 µM
same,IC50,A549,2.47 ± 0.41 µM
same,IC50,PANC-1,> 10 µM
same,IC50,HeLa,0.51 ± 0.121 µM
same,IC50,JHH7,7.15 ± 2.6 µM
"C[C@H]1[C@@H](O)O[C@@H]2O[C@@]3(C)CC[C@H]4[C@H](C)CC[C@@H]1[C@@]24OO3 [DHA, dihydroartemisinin]",IC50,"KP4; Homo sapiens, KP-4",> 10 µM
same,IC50,"HPDE6-C7; HPDE6c7, 72 h",> 10 µM
same,IC50,MCF,> 10 µM
same,IC50,"H1975; Homo sapiens, NCI-H1975, 72 h",> 10 µM
same,IC50,THLE-2; Homo sapiens,8.66 ± 0.714 µM
same,IC50,HEK-293T; Homo sapiens,> 10 µM
same,IC50,"LX2; Homo sapiens, LX-2, 72 h",> 10 µM
same,t1/2,[2],30 min
same,IC50,"HCT116; Homo sapiens, HCT-116",> 10 µM
same,IC50,A549; Homo sapiens,> 10 µM
same,IC50,PANC-1; Homo sapiens,> 10 µM
same,IC50,HeLa; Homo sapiens,> 10 µM
same,IC50,JHH7,> 10 µM
CC1CCC2C(C)C(OCCNCCOC3OC4OC5(C)CCC6C(C)CCC(C3C)C46OO5)OC3OC4(C)CCC1C32OO4 (stereo not drawn) [SM1044],IC50,"KP4; Homo sapiens, KP-4",3 ± 0.799 µM
same,IC50,"HPDE6-C7; HPDE6c7, 72 h",> 10 µM
same,IC50,MCF,1.33 ± 0.303 µM
same,IC50,"H1975; Homo sapiens, NCI-H1975, 72 h",6.88 ± 0.014 µM
same,IC50,THLE-2; Homo sapiens,> 10 µM
same,IC50,HEK-293T; Homo sapiens,> 10 µM
same,IC50,"LX2; Homo sapiens, LX-2, 72 h",> 10 µM
same,IC50,"HCT116; Homo sapiens, HCT-116",4.98 ± 2.36 µM
same,IC50,A549; Homo sapiens,3.45 ± 1.76 µM
same,IC50,PANC-1; Homo sapiens,5.95 ± 0.501 µM
same,IC50,HeLa; Homo sapiens,2.29 ± 0.429 µM
same,IC50,JHH7,2.13 ± 0.573 µM

# From paper PMC12362764, “Novel Cyano‐Artemisinin Dimer ZQJ29 Targets PARP1 to Induce Ferroptosis in Pancreatic Cancer Treatment” (Advanced Science, 2025)
